Converted amounts (≈) assume the structure as drawn. Where two headings read alike, the source gives them in different places.

Series [1] deals with carrageenan-induced paw edema. Nature of the series: Carrageenan-induced paw edema (in vivo anti-inflammatory activity). Also noted: species or system BALB/C albino mice; unit not given beside the values. Particulars: 10 mg/kg, mice, n = 5. The procedure:
At 7–8 weeks old, male BALB/C albino mice (29–35 g), were purchased from The National Institute of Health (NIH), Islamabad, Pakistan. Five animals were housed per group and placed in a controlled temperature and humidity-controlled room (22 °C and 66 ± 5%, respectively) in a 12 h light–dark cycle and provided with water and food ad libitum. Ethical approval was taken from the bio-ethical committee of Quaid-I-Azam University (Approval No. BEC-FBS-QAU2018-119) and all protocols were conducted following the Ethical Guide to the Code of Practice for the Housing and Care of Animals Act 1986 (ARRIVE (Animal Research: Reporting In Vivo Experiments) guidelines). The anti-inflammatory activity of the synthesized compounds was evaluated by using the carrageenan-induced rat paw edema assay. To determine the dose response of tetrahydroquinoline derivatives, animals were first given a dose of 0.1, 1 and 10 mg/kg against 100 µL carrageenan (1% solution in normal saline)/paw. Treatment was given 60 min before carrageenan injection. Readings were taken at 4 h post carrageenan injection. The in vivo anti-inflammatory activity was performed following the procedure described by Koksal, et al. in 2017. Paw edema was induced by injecting 100 µL of 1% sterile carrageenan solution into the right hind paw of mice. Synthesized compounds (10 mg/kg), vehicle (saline with 2% DMSO) and drug (acetylsalicylic acid, ASA 10 mg/kg) were administered to the mice orally by gastric intubation 60 min before injecting carrageenan into the right hind paw. The decrease in edema was measured by vernier calipers every 2 h.

The nature of series [2]: DPPH free radical scavenging assay. Particulars: mean ± SEM, n = 3; for IC50 (DPPH radical scavenging): concentration to scavenge 50% of the DPPH radicals. The procedure:
The % free radical scavenging activity (%FRSA) of the synthetic compounds was evaluated by the discoloration of an unstable DPPH reagent to the stable yellow-colored 2,2-diphenyl-1-picrylhydrazine molecule by accepting one electron from a donor antioxidant; the mechanism is shown in Scheme 2.
The % FRSA (free radical scavenging activity) of the synthetic compounds was determined by using the method of Tai et al. with slight modifications. The antioxidant potential was determined by detecting the capacity of the synthetic compounds to quench the DPPH free radicals. The synthetic compounds were taken in a 96-well plate at three-fold concentrations of 200 µg/mL, 66.6 µg/mL, 22.2 µg/mL and 7.4 µg/mL. DPPH free radicals were added to entire wells to make up the volume up to 200 µL. DMSO and ascorbic acid were taken as negative and positive controls, respectively. The absorbance was taken at 630nm using a microplate reader (ELx800 BioTek). The percentage of scavenging activity was calculated by the given formula:% scavenging activity = (1 − Abs/Abc) × 100
Abs = sample’s absorbance; Abc = control’s absorbance.

In series [3] the test system is Hep-2C cells. Put plainly: MTT assay against Hep-2C cells. To be noted: read-out: IC50 (Mean ± SEM) Hep-2C Cells. The class given is cell-based, Human. The procedure:
Hep-2C cell line experiments were performed in the Immunology Lab of the National Institute of Health (NIH), Islamabad, Pakistan. Human cervix carcinoma cells Hep-2C (ATCC HB-8065) were cultured in Dulbecco’s modified Eagle’s medium (DMEM), comprising 10% fetal calf serum (10% FCS) and supplemented with 2 mM L-glutamine, 100 U/mL penicillin, 100 µg/mL streptomycin and 1 mM Na pyruvate, at 37 °C in a humidified 5% CO2 incubator.
The tetrazolium dye 3-(4, 5-dimethyl thiazolyl-2)-2, 5-diphenyltetrazolium bromide (MTT) was used to assess the cytotoxic potential of the test compounds. In living cells, MTT is reduced into its insoluble purple product formazan, which is measured spectrophotometrically.
Hep-2C cells, in a density of 1 × 10^6 (> 90% cell viability), were cultured in a 96-well plate and treated with different concentrations of the test compounds for 24, 48 and 72 h. Ten microliters of MTT (1 mg per mL) were added per well followed by incubation for 4 h. Insoluble formazan crystals were dissolved by adding 100 µL of DMSO. Cells were then incubated for another 2 h. Absorbance was measured at 570 nm by a microplate reader. Untreated Hep-2C cells were taken as controls and DMSO as a negative. % cell viability = (abssample − absblank)/(abscontrol − absblank) × 100

A short description of series [4]: MTT cytotoxicity against raw macrophages. The class given is cell-based, albino rats. To be noted: albino, rat; for viability at 24 h, 1 µM / viability at 24 h, 10 µM / viability at 24 h, 50 µM / viability at 24 h, 100 µM: peritoneal macrophages (raw macrophages), raw macrophages, MTT, read-out: % Cell Viability; for IC50 at 24 h: primary peritoneal macrophages, mean ± SEM, n = 3. The protocol:
The % cell viability of the synthetic library was evaluated in vitro by measuring the mitochondrial dehydrogenase activity (MTT test) on raw macrophages.
The cytotoxic potential was assessed by using an MTT 3-(4,5-dimethyl thiazole-2-yl)-2,5- diphenyl tetrazolium bromide assay. Briefly, macrophages were extracted from the peritoneal cavity of albino rats and plated at a density of 1 × 10^6 per well in a 96-well plate and incubated in a 5% CO2 incubator at 37 °C for 24 h. The cells were treated with various concentrations of the test compounds (100 µM, 50 µM, 10 µM and 1 µM) or vehicle alone. The test compounds were first dissolved in DMSO to make a 100 mM stock solution and then further dilutions were made from this stock solution. After 24 h of incubation, 20 µL of MTT (1 mg/mL in normal saline) was added into each well and incubated under the same conditions for 2 h. Mitochondrial succinate dehydrogenase converted MTT in live cells into purple formazan crystals. The formazan crystals were then solubilized in 100 µL DMSO, and the absorbance was measured at 570 nm. The % cell viability was calculated by the following formula; % cell viability = (abssample − absblank)/(abscontrol − absblank) × 100

For series [5], the system named is brine shrimp nauplii. Put plainly: Brine shrimp lethality bioassay. The class given is in vivo. To be noted: 24 h, n = 3. The procedure:
Brine shrimp eggs were hatched in a shallow rectangular plastic dish and filled with artificial seawater, which was prepared with a commercial salt mixture. In a 96-well plate, 150 µL of artificial seawater was added and 10 nauplii were added into this. Test compounds (400, 200, 100 and 50 µg/mL) were added into each well and the final volume was made up by adding the artificial seawater. The well plate was left uncovered under a lamp. The number of surviving shrimps were counted and recorded after 24 h. The test was repeated in triplicate. […] The percentage mortality (%M) was also calculated by dividing the number of dead nauplii by the total number and then multiplied by 100.

In series [6] the test system is NO generated by LPS-induced macrophages. Put plainly: Nitric oxide assay (Griess) in LPS-induced macrophages. It is filed as cell-based, murine. To be noted: Mus musculus, Macrophage, 18 h, LPS 1 µg/mL, read-out: % NO Production (Mean ± SEM). The procedure:
A Griess reagent, a spectrophotometric determination of nitrite level, was carried out to measure the nitrite level in the conditioned medium of macrophages treated with lipopolysaccharide (LPS). Sodium nitrite (NaNO2) was used as a standard compound for the standard curve (Figure 8). The NO concentrations were obtained using the standard curve equation: y = 0.0083x + 0.0017, R^2 = 0.9999, where y is the absorbance at 540 nm and x is the NO concentration in µM. The inhibitory activity of the tested compounds towards NO generated by LPS-induced macrophages was obtained from the calculated value of x.
The anti-inflammatory effect of the synthesized compounds in murine macrophages was evaluated by using the Griess reaction method, described previously. In brief, 1 × 10^6 were plated in a 96-well plate and incubated in a 5% CO2 incubator at 37 °C for 24 h, pre-treated with different concentrations (100 µM, 50 µM, 10 µM and 1 µM) of synthetic compounds for another 2 h and challenged with LPS (1 µg/mL) for an additional 18 h. Equal volumes of Griess reagent (1% sulphanilamide in 50% phosphoric acid and 0.1% naphthyl ethylenediamine dihydrochloride in distilled water and vortexed) and culture medium were mixed and the absorbance was taken at 540 nm. Lipopolysaccharide (LPS) was taken as a blank and piroxicam was taken as a positive control. A t-test was applied to determine the significance of the results.

For `CC(=O)Oc1ccccc1C(=O)O` [Acetyl salicylic acid, reference compound], the Paw thickness in series [1] (0 h after carrageenan injection) is listed as 2.14 ± 0.08; in series [1] (2 h after carrageenan injection), 2.26 ± 0.05; in series [1] (4 h after carrageenan injection), 2.32 ± 0.04; in series [1] (6 h after carrageenan injection) it was 2.39 ± 0.02.

As for `O=C1O[C@H]([C@@H](O)CO)C(O)=C1O` [Ascorbic Acid, reference compound], the “% DPPH Scavenging Activity” value in series [2] (7.4 µg/mL) stood at 31.35 ± 0.23%; in series [2] (22.22 µg/mL), 52.12 ± 0.31%; in series [2] (66.66 µg/mL), 76.63 ± 0.19%; in series [2] (200 µg/mL) it was 89.01 ± 0.18%. The “IC50 (DPPH radical scavenging)” value in series [2] turned out to be 41.38 ± 0.34 mg/L (≈ 235 µM).

Consider `N.N.[Cl][Pt][Cl]` [Cisplatin, reference compound], for which the IC50 in series [3] (24 h) came out at 19.1 ± 1.06 µM; in series [3] (48 h), 17.5 ± 1.07 µM; in series [3] (72 h, listed as cisplatin) it was 14.6 ± 1.01 µM; in series [3] (72 h) it was 14.6 ± 1.01 µM.

In the case of `COc1cccc2c1C(=O)c1c(O)c3c(c(O)c1C2=O)C[C@@](O)(C(=O)CO)C[C@@H]3O[C@H]1C[C@H](N)[C@H](O)[C@H](C)O1` [Doxorubicin, reference compound], in series [4], the viability at 24 h, 1 µM turned out to be 51 ± 1.34%; the viability at 24 h, 10 µM was found to be 40 ± 0.87%; the viability at 24 h, 50 µM was 33 ± 1.01%; the viability at 24 h, 100 µM is 17 ± 0.83%. The molecule further had an IC50 at 24 h in series [4] of 17.1 ± 0.37 µM. Moreover, the “LD50 ± SEM (brine shrimp lethality)” value in series [5] was 124 ± 1.54 µg/mL.

Regarding `CN1C(C(=O)Nc2ccccn2)=C(O)c2ccccc2S1(=O)=O` [Piroxicam, reference compound], in series [6], the activity at 1 µM stood at 25.4 ± 0.45%, the activity at 10 µM came to 20.7 ± 0.24%, the activity at 50 µM was 16.5 ± 0.41% and the activity at 100 µM came out at 13.4 ± 0.54%.

Consider `O=c1c(O)c(-c2ccc(O)c(O)c2)oc2cc(O)cc(O)c12` [Quercetin, reference compound], for which the “% DPPH Scavenging Activity” value is listed as 42.34 ± 0.36% in series [2] (7.4 µg/mL), 58.31 ± 0.28% in series [2] (22.22 µg/mL), 69.81 ± 0.17% in series [2] (66.66 µg/mL) and 81.43 ± 0.21% in series [2] (200 µg/mL). Besides, in series [2], the “IC50 (DPPH radical scavenging)” value was found to be 41.64 ± 1.01 mg/L (≈ 138 µM).

As for `c1ccc2c(c1)CCCN2CN1CCNCC1` [SF6, 1-(Piperazine-1-ylmethyl)-1,2,3,4-tetrahydroquinoline], the “% DPPH Scavenging Activity” value in series [2] (7.4 µg/mL) is listed as 8.81 ± 0.21%. In series [2] (22.22 µg/mL), the “% DPPH Scavenging Activity” value stood at 37.75 ± 0.31%. Moreover, the “% DPPH Scavenging Activity” value in series [2] (66.66 µg/mL) amounted to 50.32 ± 0.18%. For the same molecule, the “% DPPH Scavenging Activity” value in series [2] (200 µg/mL) is 66.61 ± 0.13%. Also, the “IC50 (DPPH radical scavenging)” value in series [2] was 35.89 ± 0.33 mg/L (≈ 155 µM). Further, in series [4], the viability at 24 h, 1 µM is 91 ± 0.99%; the viability at 24 h, 10 µM was 87 ± 0.82%; the viability at 24 h, 50 µM came out at 65 ± 0.76%; the viability at 24 h, 100 µM stood at 60 ± 1.21%. Moreover, the IC50 at 24 h in series [4] amounted to 23.37 ± 0.17 µM. Moreover, in series [6], the activity at 1 µM amounted to 77.3 ± 0.62%, the activity at 10 µM was determined as 72.33 ± 0.59%, the activity at 50 µM came out at 61.11 ± 0.54% and the activity at 100 µM amounted to 52.44 ± 0.49%. Also, the “LD50 ± SEM (brine shrimp lethality)” value in series [5] turned out to be 121.2 ± 1.09 µg/mL.

As for `CCN(CC)CN1CCCc2ccccc21` [SF11, N-((3,4-dihydroquinolin-1(2H)-yl)methyl)-N-ethylethanamine], in series [2] (7.4 µg/mL), the “% DPPH Scavenging Activity” value stood at 7.76 ± 0.18%. In addition, the “% DPPH Scavenging Activity” value in series [2] (22.22 µg/mL) is listed as 15.54 ± 0.09%. The “% DPPH Scavenging Activity” value in series [2] (66.66 µg/mL) was found to be 30.9 ± 0.12%. In addition, the “% DPPH Scavenging Activity” value in series [2] (200 µg/mL) is 43.93 ± 0.28%. In addition, in series [2], the “IC50 (DPPH radical scavenging)” value amounted to 53.63 ± 0.13 mg/L (≈ 246 µM). Also, in series [4], the viability at 24 h, 1 µM is 95 ± 0.91%; the viability at 24 h, 10 µM worked out at 82 ± 0.84%; the viability at 24 h, 50 µM was determined as 62 ± 1.2%; the viability at 24 h, 100 µM turned out to be 41 ± 0.83%. The molecule further returned an IC50 at 24 h in series [4] of 26.4 ± 0.31 µM. Further, in series [6], the activity at 1 µM turned out to be 43 ± 0.66%, the activity at 10 µM stood at 39.8 ± 0.61%, the activity at 50 µM was 33.7 ± 0.53% and the activity at 100 µM was 25.7 ± 0.44%. In addition, the “LD50 ± SEM (brine shrimp lethality)” value in series [5] was 200 ± 2.11 µg/mL.

Values taken from publication PMC7321408, “One-Pot Multicomponent Synthesis and Bioevaluation of Tetrahydroquinoline Derivatives as Potential Antioxidants, α-Amylase Enzyme Inhibitors, Anti-Cancerous and Anti-Inflammatory Agents” (Molecules, 2020).
